Literature values, collected in patent US20230228656A1, “Functionalized Blood Sampling Device and Method for PEth Measurement” (CAPITAINER AB, priority 2020, published 2023).

System: PLD
Conditions: literature assessment; considered unsuitable for clinical use; cited from earlier work

O=C(NCCN1CCC(n2c(=O)[nH]c3cc(Cl)ccc32)CC1)c1ccc(F)cc1 [halopemide]
potency as PLD inhibitor: low potency

O=C(NCCN1CCC(n2c(=O)[nH]c3ccccc32)CC1)c1cc2cc(F)ccc2[nH]1 [FIPI, 5-fluoro-2-indolyl-deschlorohalopemide]
potency as PLD inhibitor: low potency
